Test results from ChEMBL document CHEMBL3272053, “(exo, exo)-2-Aryltropane-3-carboxylic esters, hypoglycemic agents with accompanying analgesic activity” (J Med Chem, 1978).
Activity calls are given as the source filed them. The calls are words filed in the database; no cut-off is given here.

Columns and labels:
[1] = tested on: Rattus norvegicus; experiment: Hypoglycemic activity in glucose loaded Sprague-Dawley rat assessed as reduction of blood glucose level at 100 mg/kg, po after 30 mins relative to control; type: functional; design: scale not given: the % may be the effect or the level left
[2] = tested on: Rattus norvegicus; experiment: Hypoglycemic activity in glucose loaded Sprague-Dawley rat assessed as reduction of blood glucose level at 100 mg/kg, po measured at 1.5 to 2 hrs; type: functional, organism-based; design: dose 100 mg/kg
[3] = tested on: Rattus norvegicus; experiment: Hypoglycemic activity in glucose loaded Sprague-Dawley rat assessed as reduction of blood glucose level at 100 mg/kg, po measured at 1 hr; type: functional, organism-based; design: dose 100 mg/kg
[4] = tested on: Rattus norvegicus; experiment: Hypoglycemic activity in glucose loaded Sprague-Dawley rat assessed as reduction of blood glucose level at 100 mg/kg, po measured at 1 hr relative to control; type: functional; design: scale not given: the % may be the effect or the level left
[5] = tested on: Rattus norvegicus; experiment: Analgesic activity in po dosed rat assessed as reduction of intraarterial bradykinin-induced pain response; type: functional
[6] = tested on: Mus musculus; experiment: Analgesic activity in po dosed Swiss-Webster mouse assessed as reduction of acetylcholine-induced writhing; type: functional
[7] = tested on: Rattus norvegicus; experiment: Hypoglycemic activity in glucose loaded Sprague-Dawley rat assessed as reduction of glucose level per 100 mL of blood at 100 mg/kg, po measured at 2 hrs (reference value: 104 +/- 4 mg/100 mL); type: functional
[8] = tested on: Rattus norvegicus; experiment: Hypoglycemic activity in glucose/glycogen loaded Sprague-Dawley rat assessed as reduction of blood glucose level at 100 mg/kg, po measured at 0.5 hrs relative to control; type: functional; design: scale not given: the % may be the effect or the level left
[9] = tested on: Rattus norvegicus; experiment: Toxicity in Sprague-Dawley rat at 240 mg/kg, po; type: organism-based; design: dose 240 mg/kg, route oral; settings: in vivo
[10] = tested on: Rattus norvegicus; experiment: Hypoglycemic activity in Sprague-Dawley rat assessed as reduction of blood glucose level at 100 mg/kg, po by glucagon-impaired glucose disposal test relative to control; type: functional; design: scale not given: the % may be the effect or the level left
[11] = tested on: Rattus norvegicus; experiment: Hypoglycemic activity in glucose loaded Sprague-Dawley rat assessed as reduction of blood glucose level at 100 mg/kg, po measured at 1.5 hrs relative to control; type: functional; design: scale not given: the % may be the effect or the level left
[12] = tested on: Rattus norvegicus; experiment: Hypoglycemic activity in Sprague-Dawley rat assessed as reduction of blood glucose level at 100 mg/kg, po by glucagon-impaired glucose disposal test in presence of opioid antagonist nalorphine; type: functional, organism-based; design: dose 100 mg/kg
[13] = tested on: Rattus norvegicus; experiment: Hypoglycemic activity in fasted Sprague-Dawley rat assessed as reduction of blood glucose level at 100 mg/kg, po measured at 1.5 hrs relative to control; type: functional; design: scale not given: the % may be the effect or the level left
[14] = tested on: Rattus norvegicus; experiment: Narcotic analgesic activity in fasted Sprague-Dawley rat at 240 mg/kg, po measured within 15 mins in presence of (exo,endo)-methyl 8-methyl-2-phenyl-8-azabicyclo[3.2.1]octane-3-carboxylate; type: functional, organism-based; design: dose 240 mg/kg
[15] = tested on: Rattus norvegicus; experiment: Hypoglycemic activity in glucose loaded Sprague-Dawley rat assessed as reduction of blood glucose level at 100 mg/kg, po measured at 0.5 hrs relative to control; type: functional; design: scale not given: the % may be the effect or the level left
[16] = tested on: Rattus norvegicus; experiment: Hypoglycemic activity in Sprague-Dawley rat assessed as reduction of blood glucose level at 100 mg/kg, po by glucagon-impaired glucose disposal test in presence of (exo,endo)-methyl 8-methyl-2-phenyl-8-azabicyclo[3.2.1]octane-3-carboxylate; type: functional, organism-based; design: dose 100 mg/kg
[17] = tested on: Rattus norvegicus; experiment: Hypoglycemic activity in fasted Sprague-Dawley rat assessed as reduction of blood glucose level at 100 mg/kg, po measured at 1 hr relative to control; type: functional; design: scale not given: the % may be the effect or the level left
[18] = tested on: Rattus norvegicus; experiment: Hypoglycemic activity in glucose/glycogen loaded Sprague-Dawley rat assessed as reduction of blood glucose level at 100 mg/kg, po measured at 1.5 hrs relative to control; type: functional; design: scale not given: the % may be the effect or the level left
[19] = tested on: Rattus norvegicus; experiment: Hypoglycemic activity in glucose/glycogen loaded Sprague-Dawley rat assessed as reduction of glucose level per 100 mL of blood at 100 mg/kg, po measured at 2 hrs (reference value: 110 +/- 10 mg/100 mL); type: functional
[20] = tested on: Rattus norvegicus; experiment: Hypoglycemic activity in Sprague-Dawley rat assessed as reduction of blood glucose level at 100 mg/kg, po by glucagon-impaired glucose disposal test in presence of microsomal enzyme inhibitor SKF 525-A; type: functional, organism-based; design: dose 100 mg/kg
[21] = Drug metabolism in glucose loaded Sprague-Dawley rat urine assessed as formation of (7)- (exo,exo)-methyl 2-(thiophen-2-yl)-8-azabicyclo[3.2.1]octane-3-carboxylate hydrochloride at 20 mg, po administered 3 to 6 hrs measured for 24 hrs by TLC/mass spectrographic analysis; type: ADME, organism-based; settings: in vivo
[22] = tested on: Rattus norvegicus; experiment: Narcotic analgesic activity in fasted Sprague-Dawley rat at 240 mg/kg, po measured at 15 mins by D'Amour-Smith tail-flick test relative to control; type: functional
[23] = tested on: Rattus norvegicus; experiment: Hypoglycemic activity in glucose/glycogen loaded Sprague-Dawley rat assessed as reduction of blood glucose level at 100 mg/kg, po measured at 1 hr relative to control; type: functional; design: scale not given: the % may be the effect or the level left
[24] = tested on: Rattus norvegicus; experiment: Hypoglycemic activity in fasted Sprague-Dawley rat assessed as reduction of blood glucose level at 100 mg/kg, po measured at 0.5 hrs relative to control; type: functional; design: scale not given: the % may be the effect or the level left
[25] = tested on: Rattus norvegicus; experiment: Hypoglycemic activity in fasted Sprague-Dawley rat assessed as reduction of blood glucose level at 100 mg/kg, po measured at 2 hrs relative to control; type: functional; design: scale not given: the % may be the effect or the level left
[26] = tested on: Mus musculus; experiment: Analgesic activity in Swiss-Webster mouse assessed as reduction of acetylcholine-induced writhing at 75 mg/kg, sc relative to control; type: functional; design: scale not given: the % may be the effect or the level left; settings: route subcutaneous
[27] = tested on: Rattus norvegicus; experiment: Narcotic analgesic activity in fasted Sprague-Dawley rat at 240 mg/kg, po measured at 60 mins by D'Amour-Smith tail-flick test relative to control; type: functional
[28] = tested on: Rattus norvegicus; experiment: Hypoglycemic activity in Sprague-Dawley rat assessed as reduction of blood glucose level at 78 mg/kg, po by glucagon-impaired glucose disposal test relative to control; type: functional; design: scale not given: the % may be the effect or the level left
[29] = tested on: Rattus norvegicus; experiment: Narcotic analgesic activity in fasted Sprague-Dawley rat at 35 mg/kg, po measured at 15 mins by D'Amour-Smith tail-flick test relative to control; type: functional
[30] = tested on: Rattus norvegicus; experiment: Hypoglycemic activity in Sprague-Dawley rat assessed as reduction of blood glucose level at 9 mg/kg, po by glucagon-impaired glucose disposal test in presence of microsomal enzyme inhibitor SKF 525-A; type: functional, organism-based; design: dose 9 mg/kg
[31] = tested on: Rattus norvegicus; experiment: Narcotic analgesic activity in fasted Sprague-Dawley rat at 35 mg/kg, po measured at 60 mins by D'Amour-Smith tail-flick test relative to control; type: functional
[32] = tested on: Rattus norvegicus; experiment: Toxicity in Sprague-Dawley rat assessed as convulsion at 35 mg/kg, po; type: organism-based; design: dose 35 mg/kg, route oral; settings: in vivo
[33] = tested on: Mus musculus; experiment: Analgesic activity in sc dosed Swiss-Webster mouse assessed as reduction of acetylcholine-induced writhing; type: functional; settings: Mus musculus, Swiss-Webster, sc; read-out: ED50
[34] = tested on: Rattus norvegicus; experiment: Hypoglycemic activity in Sprague-Dawley rat assessed as reduction of blood glucose level at 9 mg/kg, po measured within 15 mins by glucagon-impaired glucose disposal test relative to control; type: functional; design: scale not given: the % may be the effect or the level left
[35] = tested on: Rattus norvegicus; experiment: Narcotic analgesic activity in fasted Sprague-Dawley rat at 35 mg/kg, po measured at 30 mins by D'Amour-Smith tail-flick test relative to control; type: functional
[36] = tested on: Rattus norvegicus; experiment: Hypoglycemic activity in Sprague-Dawley rat assessed as reduction of blood glucose level at 9 mg/kg, po measured < 90 mins by glucagon-impaired glucose disposal test; type: functional, organism-based; design: dose 9 mg/kg
[37] = tested on: Mus musculus; experiment: Toxicity in Swiss-Webster mouse assessed as mortality at 75 mg/kg, sc; type: organism-based; design: dose 75 mg/kg, route subcutaneous; settings: in vivo
[38] = tested on: Rattus norvegicus; experiment: Hypoglycemic activity in Sprague-Dawley rat assessed as reduction of blood glucose level at 88 mg/kg, po by glucagon-impaired glucose disposal test relative to control; type: functional; design: scale not given: the % may be the effect or the level left
[39] = tested on: Rattus norvegicus; experiment: Toxicity in Sprague-Dawley rat assessed as tremor at 120 mg/kg, sc; type: organism-based; design: dose 120 mg/kg, route subcutaneous; settings: in vivo
[40] = tested on: Mus musculus; experiment: Toxicity in Swiss-Webster mouse assessed as hyperactivity at 75 mg/kg, sc; type: organism-based; design: dose 75 mg/kg, route subcutaneous; settings: in vivo
[41] = tested on: Rattus norvegicus; experiment: Narcotic analgesic activity in fed Sprague-Dawley rat at 120 mg/kg, sc measured at 30 mins by D'Amour-Smith tail-flick test; type: functional; settings: route subcutaneous
[42] = tested on: Rattus norvegicus; experiment: Toxicity in Sprague-Dawley rat assessed as tremor at 480 mg/kg, po; type: organism-based; design: dose 480 mg/kg, route oral; settings: in vivo
[43] = tested on: Rattus norvegicus; experiment: Toxicity in Sprague-Dawley rat assessed as hyperexcitability at 480 mg/kg, po; type: organism-based; design: dose 480 mg/kg, route oral; settings: in vivo
[44] = tested on: Rattus norvegicus; experiment: Narcotic analgesic activity in fasted Sprague-Dawley rat at 480 mg/kg, po measured at 60 mins by D'Amour-Smith tail-flick test relative to control; type: functional

COC(=O)[C@H]1C[C@H]2CC[C@@H]3[C@H]1c1cc(O)ccc1CN23
Activity [1]: 33% | Activity [2]: inactive | Activity [3]: inactive

CCCCCN1[C@@H]2CC[C@@H]1[C@@H](c1cccs1)[C@@H](C(=O)OC)C2.CS(=O)(=O)O
Activity [4]: 61% | ED50 [5]: 17 mg/kg | ED50 [6]: 57 mg/kg | Activity [7]: 76 mg/kg | Activity [8]: 60% | Activity [9]: Non-toxic | Activity [10]: 60% | Activity [11]: 33% | Activity [12]: Active | Activity [13]: 39% | Activity [14]: inactive | Activity [15]: 67% | Activity [16]: Active | Activity [17]: 41% | Activity [18]: 52% | Activity [19]: 77 mg/kg | Activity [20]: inactive | Drug metabolism [21]: metabolite_detected | Activity [22]: 71% | Activity [23]: 60% | Activity [24]: 42% | Activity [25]: 33%

CN1[C@@H]2CC[C@@H]1[C@@H](c1ccccc1)[C@@H](C(=O)O)C2
Activity [26]: 7% | Activity [27]: <20% | Activity [22]: <20% | Activity [28]: <20%

COC(=O)[C@H]1C[C@H]2CC[C@@H]3[C@H]1c1sccc1CN23.Cl
Activity [29]: 74% | Activity [30]: Active | Activity [31]: 12% | Activity [32]: Toxic | ED50 [33]: 1.5 mg/kg | Activity [34]: 43% | Activity [35]: 14% | Activity [36]: inactive | Activity [37]: Toxic

COC(=O)[C@H]1C[C@H]2CC[C@H]([C@H]1Cc1ccccc1)N2C.Cl
Activity [38]: 21% | Activity [39]: Toxic | Activity [40]: Toxic | Activity [41]: <20% | ED50 [33]: 5.8 mg/kg

COC(=O)[C@H]1C[C@H]2CC[C@H]([C@H]1c1ccccc1)N2Cc1ccccc1
ED50 [6]: 21 mg/kg | Activity [10]: 42% | Activity [42]: Toxic | Activity [43]: Toxic | Activity [44]: 60%
